Data set [1] is described as follows: Human coffee intervention study: plasma concentrations after roasted coffee brew by UPLC-MS/MS. The format is in vivo. The note with it: for Cmax / time of estimated cmax: human plasma after coffee brew (200 mL); for Cmax: n = 10, mean ± SD, read-out: estimated cmax in plasma; for time of estimated cmax: sampling only at 0, 1, 4, 10 h. The protocol: The study included ten volunteers (5 females, 5 males) (age: 28.3 ± 2.3 years; BMI: 21.89 ± 2.22 kg/m^2). The intervention study took place from November 5, 2021, to February 17, 2022, in the core facility human studies of the ZIEL Institute for Food and Health of the Technical University of Munich. The study was performed in agreement with the Declaration of Helsinki, and all participants gave written informed consent. The study was approved by the Ethics Committee of the Technical University of Munich (5798/13 S-SR) and registered in the German Register of Clinical Studies (DRKS00005083).
The study participants underwent a dietary protocol that excluded all forms of coffee consumption. Additionally, chocolate, black/green/white, mate tea, cola, energy drinks, and beauty products containing caffeine (e.g., shampoos, creams) were prohibited 1 week before the test day. Furthermore, the study participants received a standardized meal the evening before the test day. The meal was composed of pasta, margarine, and salt, and the amount of energy was calculated based on the participant’s basal energy demand. On the morning of the test day, the participants were in a fastened state and received water (control samples) or coffee brew (coffee intervention) as breakfast. Blood was sampled before coffee intake (0 h) and at defined time points (1, 4, and 10 h) after coffee intake. 6 h after the coffee intake, the participants received lunch, the same standardized meal as the previous dinner. The administered coffee was prepared from a coffee capsule (Nespresso, ROMA) with 100 mL water. The administered volume of the coffee brew was 200 mL. Based on the coffee powder per capsule ([…]), the concentrations of 2 (2.8 μmol/g) and 3 (1.1 μmol/g), respectively,[10] and an estimated extraction rate of 100%, the total ingested amounts were 33.6 μmol (2) and 13.2 μmol (3).
In an Eppendorf tube (1.5 mL), aliquots (50 μL each) of the calibration standard, sample, or QC, respectively, were mixed with the IS solution (1000 nM in ethanol, 50 μL) and acetonitrile/ethanol (9 + 1, v + v, 50 μL) was added. After vortexing, suspensions were cleared by centrifugation (12,000 rpm, 4 °C, 10 min), and the supernatant (∼100 μL) was transferred to an HPLC vial with 200 μL insert for analysis (5 μL injection).
The UPLC–MS/MS system consisted of a Shimadzu Nexera X2 UPLC system (Shimadzu, Duisburg, Germany) hyphenated to a QTrap 5500 MS/MS system (Sciex, Darmstadt, Germany) operating in negative electrospray (ESI^–) mode with the following ion source parameters: ion spray voltage: −4500 V; source temperature: 500 °C; nebulizer gas: 55 psi; heater gas: 65 psi; and curtain gas: 35 psi. The MS/MS parameters, including the collision cell entrance potential (CEP), declustering potential (DP), collision energy (CE), and cell exit potential (CXP), were tuned for each compound and mass transition and are summarized in Supporting Table S3. The dwell time for each compound was 30 ms, and the total cycle time was 0.75 s. Chromatographic separation was achieved on a C18 column (Kinetex C18, 100 mm × 2.1 mm, 1.7 μm, Phenomenex, Aschaffenburg, Germany) at a flow rate of 500 μL/min flow rate. Eluent A was 0.1% formic acid in water, and eluent B was 0.1% formic acid in acetonitrile. B was kept at 3% (1 min), increased to 25% (in 3 min), 90% (in 2 min, 1 min isocratic), and 3% (0.5 min, 2.5 min isocratic). The total time of the analysis was 10 min. The column effluent was introduced from the waste to the MS/MS system between 3 and 7 min.
We applied this method to human plasma samples from a coffee intervention study to investigate the appearance of coffee compounds 1–3 and metabolites M1–M3. Ten participants underwent a washout period (7 days) and then consumed one dose of […]. Blood samples were taken at baseline (0 h) and 1, 4, and 10 h after the intervention. […]

Details of data set [2]: method as in PMID 36442242. The note with it: coffee drinkers' urine, four of six samples, qualitative; cited from earlier work.
The mark [3] stands for this setting: both sexes, human, plasma, oral, 200 mL, 1 h after coffee brew (200 mL), human plasma, values above LLOQ, read-out: plasma concentration, mean ± SD.
The mark [4] stands for this setting: both sexes, human, plasma, oral, 200 mL, 10 h after coffee brew (200 mL), human plasma, values above LLOQ, read-out: plasma concentration, mean ± SD.
Where [5] appears, read: human, plasma, oral, 200 mL, participant ayia, 1 h after coffee, read-out: plasma concentration, individual.
The mark [6] stands for this setting: human, plasma, oral, 200 mL, participant ayia, 10 h after coffee, read-out: plasma concentration, individual.
The mark [7] stands for this setting: human, plasma, oral, 200 mL, participant cbdu, 1 h after coffee, b = below LLOQ, read-out: plasma concentration, individual.
Setting [8] is: human, plasma, oral, 200 mL, participant cbdu, 10 h after coffee, read-out: plasma concentration, individual.
Where [9] appears, read: human, plasma, oral, 200 mL, participant eogo, 10 h after coffee, b = below LLOQ, read-out: plasma concentration, individual.
Setting [10] is: human, plasma, oral, 200 mL, participant ggot, 1 h after coffee, read-out: plasma concentration, individual.
The mark [11] stands for this setting: human, plasma, oral, 200 mL, participant ggot, 10 h after coffee, b = below LLOQ, read-out: plasma concentration, individual.
Setting [12] is: human, plasma, oral, 200 mL, participant imhz, 10 h after coffee, read-out: plasma concentration, individual.
Setting [13] is: human, plasma, oral, 200 mL, participant mgjj, 10 h after coffee, read-out: plasma concentration, individual.
Where [14] appears, read: human, plasma, oral, 200 mL, participant wbqj, 1 h after coffee, b = below LLOQ, read-out: plasma concentration, individual.
Setting [15] is: human, plasma, oral, 200 mL, participant wbqj, 10 h after coffee, b = below LLOQ, read-out: plasma concentration, individual.
Setting [16] is: human, plasma, oral, 200 mL, participant wbvs, 10 h after coffee, read-out: plasma concentration, individual.

Read-outs that look alike come from different tables or passages of the source.

As usually defined, the Cmax is the maximum level reached in the sampled fluid or tissue. On to `CC1C(=O)C23CCC4C(C(=O)OC5OC(C(=O)O)C(O)C(O)C5O)CC(O)CC4(C)C2CCC1C3` [M2, 2β-hydroxy-15-oxoatractylan-4α-carboxy-19-O-β-D-glucuronide], for which the “plasma level at baseline” value in data set [1] (0 h, before coffee intake, human plasma) is on record as “below the LLOQ”. Besides, the “plasma concentration, mean ± SD” value in data set [1] (1 h after coffee brew (200 mL), human plasma, values above LLOQ) came to 0.6 ± 0.1 nM. In data set [1] (10 h after coffee, n = 10), the “samples above the LLOQ” value was 80%. Also, the concentration at 1 h in data set [1] (setting [3]) worked out at 0.63 ± 0.14 nM; in data set [1] (setting [5]), 0.5 nM; in data set [1] (setting [7]), 0.1 nM; in data set [1] (setting [10]), 0.7 nM; in data set [1] (setting [14]) it was 0.01 nM. Moreover, the concentration at 10 h came out at 2.5 ± 1.9 nM in data set [1] (setting [4]); 5.6 nM in data set [1] (setting [6]); 0.9 nM in data set [1] (setting [8]); 3.1 nM in data set [1] (setting [9]); 0.6 nM in data set [1] (setting [11]); 1.1 nM in data set [1] (setting [12]). In addition, the concentration at 10 h stood at 0.8 nM in data set [1] (setting [13]), 2.8 nM in data set [1] (setting [15]) and 5.1 nM in data set [1] (setting [16]). The Cmax in data set [1] (both sexes, oral) is 2.5 ± 1.9 nM. The “time of estimated cmax” value in data set [1] is listed as 10 h. Moreover, the “study participants in whom the conjugate appeared within 10 h after coffee” value in data set [1] (human plasma, n = 10) is given as 80%. Further, the concentration at 4 h in data set [1] (human, plasma, oral, 200 mL, participant ayia, 4 h after coffee, b = below LLOQ, read-out: plasma concentration, individual) came out at 0.1 nM. Also, the concentration at 0 h in data set [1] (human, plasma, oral, 200 mL, participant rrmk, 0 h, b = below LLOQ, read-out: plasma concentration, individual) was 0.1 nM. For the same compound, the “urine samples in which detected” value in data set [2] was 67%.

As for `C=C1[C@@H]2CC[C@@H]3[C@@](CCC4[C@H](C(=O)O)C[C@@H](O)C[C@]43C)(C2)[C@@H]1O` (stereo partly drawn) [compound 1, atractyligenin], the concentration at 1 h in data set [1] (setting [3]) was found to be 41.9 ± 12.5 nM; in data set [1] (setting [5]), 36.5 nM; in data set [1] (setting [7]), 31.6 nM; in data set [1] (human, plasma, oral, 200 mL, participant eogo, 1 h after coffee, b = below LLOQ, read-out: plasma concentration, individual), 43.4 nM; in data set [1] (setting [10]), 49.2 nM; in data set [1] (human, plasma, oral, 200 mL, participant imhz, 1 h after coffee, read-out: plasma concentration, individual) it was 70.5 nM. In addition, the concentration at 1 h is 34.7 nM in data set [1] (human, plasma, oral, 200 mL, participant mgjj, 1 h after coffee, read-out: plasma concentration, individual); 42.7 nM in data set [1] (human, plasma, oral, 200 mL, participant rrmk, 1 h after coffee, read-out: plasma concentration, individual); 49.1 nM in data set [1] (setting [14]); 36.1 nM in data set [1] (human, plasma, oral, 200 mL, participant wbvs, 1 h after coffee, read-out: plasma concentration, individual); 26 nM in data set [1] (human, plasma, oral, 200 mL, participant xrwz, 1 h after coffee, read-out: plasma concentration, individual). Further, the concentration at 4 h in data set [1] (both sexes, human, plasma, oral, 200 mL, 4 h after coffee brew (200 mL), human plasma, values above LLOQ, read-out: plasma concentration, mean ± SD) came to 40.1 ± 22.9 nM; in data set [1] (human, plasma, oral, 200 mL, participant ggot, 4 h after coffee, b = below LLOQ, read-out: plasma concentration, individual) it was 13.8 nM; in data set [1] (human, plasma, oral, 200 mL, participant imhz, 4 h after coffee, read-out: plasma concentration, individual), 19.6 nM; in data set [1] (human, plasma, oral, 200 mL, participant mgjj, 4 h after coffee, read-out: plasma concentration, individual) it was 17.7 nM; in data set [1] (human, plasma, oral, 200 mL, participant rrmk, 4 h after coffee, b = below LLOQ, read-out: plasma concentration, individual) it was 68.1 nM; in data set [1] (human, plasma, oral, 200 mL, participant wbqj, 4 h after coffee, b = below LLOQ, read-out: plasma concentration, individual), 59.7 nM. Besides, in data set [1] (human, plasma, oral, 200 mL, participant wbvs, 4 h after coffee, read-out: plasma concentration, individual), the concentration at 4 h was 35.2 nM. The concentration at 10 h in data set [1] (setting [4]) came out at 23.3 ± 10.5 nM; in data set [1] (setting [6]) it was 25.6 nM; in data set [1] (setting [8]), 19 nM; in data set [1] (setting [9]) it was 8 nM; in data set [1] (setting [11]) it was 2.3 nM; in data set [1] (setting [12]), 43.7 nM. The concentration at 10 h in data set [1] (setting [13]) was 16.5 nM; in data set [1] (human, plasma, oral, 200 mL, participant rrmk, 10 h after coffee, read-out: plasma concentration, individual) it was 17.9 nM; in data set [1] (setting [15]), 4.7 nM; in data set [1] (setting [16]), 17 nM; in data set [1] (human, plasma, oral, 200 mL, participant xrwz, 10 h after coffee, b = below LLOQ, read-out: plasma concentration, individual) it was 10.4 nM. In addition, the Cmax in data set [1] (both sexes, oral) is 41.9 ± 12.5 nM. Moreover, in data set [1] (from the level between 1 and 4 h to 10 h after coffee), the “drop of plasma concentration until 10 h” value was about 45%. The “time of estimated cmax” value in data set [1] is listed as 1 h. Moreover, in data set [1] (individual plots, after first maximum at 1 h), the “participants in whom plasma concentration increased between 4 and 10 h” value is recorded as 60%.

For the compound `CC1C(=O)C23CCC4C(C(=O)O)CC(O)CC4(C)C2CCC1C3` (stereo not drawn) [compound 5, 2β-hydroxy-15-oxoatractylan-4α-carboxylic acid], the “appearance in plasma after coffee” value in data set [1] (all samples 1, 4, 10 h after coffee brew (200 mL), human plasma) is “did not appear in the plasma”.

The values above are taken from article PMC10722499, “Consumption of Roasted Coffee Leads to Conjugated Metabolites of Atractyligenin in Human Plasma” (Journal of Agricultural and Food Chemistry, 2023).
